Laboratory results as given in publication PMC11078990, “Identification and characterization of small molecule inhibitors of the LINE-1 retrotransposon endonuclease” (Nature Communications, 2024).
Values joined by “and” are separate entries in the source; they are usually repeats but may differ in a detail not shown here. Identical values can stand only once. “Also recorded” adds a separate entry of the source. Like-named read-outs stand apart in the source and are kept apart here.

Tests used:
APE1 [1] = target: T1, APE1 (Homo sapiens, UniProt P27695); experiment: APE1 fluorescent oligonucleotide activity assay (abasic site substrate); assay type: biochemical; conditions: for activity at 25 µM: inhibitors at 25 μM, relative to 0 μM inhibitor control, mean ± s.d., 3 independent experiments, read-out: APE1 activity (%)
T1 construct: purchased New England Biolabs (NEB) M0282S

L1 retrotransposition = experiment: HeLa dual-luciferase L1 retrotransposition assay; assay type: cell-based, human; conditions: for L1 retrotransposition, average: average of 4 replicates, Figure 4b; for Luciferase (retrotransposition), replicates: Replicates 1-4
[2] = test system: substrate oligonucleotide used in the EN activity assay; assay type: binding; set-up: key to Binding Detected? (Y/N): Binding Detected? (Y/N); Binding Detected? (Y/N)
APE1 [3] = target: T1, APE1; conditions: read-out: Ki for APE1; cited from earlier work
[4] = target: L1 EN (LINE-1 retrotransposon endonuclease domain) (Homo sapiens, UniProt O00370, N5T); experiment: Fluorescent oligonucleotide EN nicking activity assay; assay type: biochemical
EN = EN (Homo sapiens, UniProt O00370, N5T); assay type: biochemical
[5] = test system: DNA fragmentation (comet tail length) in HeLa Tet-On cells expressing EN domain; experiment: Neutral comet assay, EN domain-only constructs; assay type: cell-based, human; conditions: EN domain-only construct, neutral comet assay, normalised to WT
HeLa Tet-On cells = conditions: human, 48 h
[6] = test system: L1-induced DNA damage in HeLa Tet-On cells (full-length L1); experiment: γ-H2AX immunofluorescence assay, full-length L1 constructs; assay type: cell-based, human
[7] = test system: senescent LF1 human diploid fibroblasts (IL6, IL1β, CCL2, IFNα, MMP3); experiment: RT-qPCR of inflammatory markers in replicatively senescent fibroblasts; assay type: cell-based
[8] = test system: senescent LF1 human diploid fibroblasts (IFN-I and Aging gene sets); experiment: RNA-seq / Gene Set Enrichment Analysis of senescent cultures; assay type: cell-based; conditions: senescent cultures treated 1 month beginning at 3 months senescence
[9] = test system: L1-induced DNA damage in HeLa Tet-On cells (EN domain only); experiment: γ-H2AX immunofluorescence assay, EN domain-only constructs; assay type: cell-based, human
[10] = compound at 25 μM, average of 3 replicates
[11] = Figure 4a Graph 3, 50μM, 0μM average 17.91
[12] = [Inhibitor] 5 μM, technical replicates 1-3, Fig. 2b source data, 5 µM
[13] = [Inhibitor] 5 μM, technical replicates 1-3, Fig. 2b source data, read-out: EN activity, percent of no inhibitor control
[14] = [Inhibitor] 25 μM, technical replicates 1-3, Fig. 2b source data, 25 µM
[15] = [Inhibitor] 25 μM, technical replicates 1-3, Fig. 2b source data, read-out: EN activity, percent of no inhibitor control
[16] = [Inhibitor] 50 μM, technical replicates 1-3, Fig. 2b source data, 50 µM
[17] = [Inhibitor] 100 μM, technical replicates 1-3, Fig. 2b source data, 100 µM
[18] = Figure 4a Graph 1, 25 μM, 0 μM average 9.554

L1 EN (LINE-1 retrotransposon endonuclease domain), sequence (O00370 1-239 N5T): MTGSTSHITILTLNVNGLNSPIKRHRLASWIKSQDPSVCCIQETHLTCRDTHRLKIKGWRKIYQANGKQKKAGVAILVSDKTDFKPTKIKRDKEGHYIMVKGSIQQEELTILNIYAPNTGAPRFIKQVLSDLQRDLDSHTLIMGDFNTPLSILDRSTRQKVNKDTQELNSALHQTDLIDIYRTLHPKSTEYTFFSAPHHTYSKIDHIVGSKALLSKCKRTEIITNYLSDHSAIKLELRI
EN, sequence (O00370 1-239 N5T): as above

O=C(O)[C@H](CCCCNc1ccc([N+](=O)[O-])cc1[N+](=O)[O-])Nc1ccc([N+](=O)[O-])cc1[N+](=O)[O-] [AD2]
APE1 activity (%) (APE1 [1]): 96.2 ± 3.4%
APE1 percent activity, Replicate 1 (APE1 [1]): 98.5607%
APE1 percent activity, Replicate 2 (APE1 [1]): 92.3765%
APE1 percent activity, Replicate 3 (APE1 [1]): 97.7464%
APE1 percent activity, average (APE1 [1]): 96.2279%
Effect on APE1 activity (APE1 [1]): inhibited; also recorded: inhibition by the weak APE1 inhibitor AD2 was detected
Percent APE1 activity, average (APE1 [1]): 66.36%
Percent APE1 activity, replicates (APE1 [1]): 67.8305% and 52.9447% and 78.2943%
Effect on L1 retrotransposition (L1 retrotransposition): did not significantly impact retrotransposition
Binding Detected? (Y/N) [2]: N
Ki (APE1 [3]): 13 µM
EN activity, percent of no inhibitor control ([4]; 2 µM): 97.2065% and 90.9835% and 64.2149%
EN activity, percent of no inhibitor control ([4]; 10 µM): 80.6222% and 62.0824% and 77.8942%
EN activity, percent of no inhibitor control ([4]; 25 µM): 84.9255% and 87.5391% and 75.5295%
EN activity, percent of no inhibitor control ([4]; 50 µM): 66.9257% and 62.5652% and 70.9549%
EN activity, percent of no inhibitor control ([4]; 100 µM): 54.3551% and 40.6401% and 45.1735%
EN activity, percent of no inhibitor control ([4]; 500 µM): 2.482% and 2.582%
EN activity, percent of no inhibitor control ([4]; 1000 µM): -0.01768% and 1.001% and 0.6109%
EN activity, percent of no inhibitor control ([4]; 2000 µM): -4.007% and -5.494% and -4.957%
Inhibition of EN activity in plasmid nicking assay (EN): full inhibition

COc1ccc2c(c1)C(=O)N(CCc1ccc(S(=O)(=O)NC(=O)NC3CCCCC3)cc1)C(=O)C2(C)C [AD12]
Nuclei comet tail length, average (WT = 1) ([5]; 50 μM inhibitor): 0.8544
Percent APE1 activity, average (APE1 [1]; 250 µM, Supplementary Fig. 6b, n=3): 114.2%
Percent APE1 activity, replicates (APE1 [1]; 250 µM, Supplementary Fig. 6b, replicates 1-3): 123.394% and 115.312% and 103.88%
APE1 percent activity, Replicate 1 (APE1 [1]; compound at 25 μM, Replicate 1): 105.329%
APE1 percent activity, Replicate 2 (APE1 [1]; compound at 25 μM, Replicate 2): 115.007%
APE1 percent activity, Replicate 3 (APE1 [1]; compound at 25 μM, Replicate 3): 106.871%
APE1 percent activity, average (APE1 [1]; [10]): 109.069%
activity at 25 µM (APE1 [1]): 109 ± 5.2%
L1 retrotransposition, average (L1 retrotransposition; 1 μM inhibitor): 17.6477
L1 retrotransposition, average (L1 retrotransposition; 5 μM inhibitor): 10.1662
L1 retrotransposition, average (L1 retrotransposition; 10 μM inhibitor): 4.75
L1 retrotransposition, average (L1 retrotransposition; 25 μM inhibitor): 4.785
L1 retrotransposition, average (L1 retrotransposition; 50 μM inhibitor): 3.467
L1 retrotransposition, average (L1 retrotransposition; 100 μM inhibitor): 2.555
Luciferase (retrotransposition), average (L1 retrotransposition; [11]): 3.467
Luciferase (retrotransposition), replicates (L1 retrotransposition; [11]): 3.679 and 3.508 and 3.347 and 3.332
Effect on L1 retrotransposition (L1 retrotransposition; HeLa cells): some activity in the retrotransposition assay
Binding Detected? (Y/N) [2]: N
EN activity, percent of no inhibitor control [4, 12]: 77.035% and 74.8653%
remaining activity at 5 µM [4, 13]: 78.7%
EN activity, percent of no inhibitor control [4, 14]: 81.0185% and 81.0517%
remaining activity at 25 µM [4, 15]: 80.7%
EN activity, percent of no inhibitor control [4, 16]: 93.0387% and 96.7449% and 76.3025%
EN activity, percent of no inhibitor control [4, 17]: 74.7453% and 98.1517% and 74.2286%
EN activity, percent of no inhibitor control ([4]; [Inhibitor] 250 μM, technical replicates 1-3, Fig. 2b source data, 250 µM): 79.2639% and 68.0005%
remaining activity at 250 µM ([4]; [Inhibitor] 250 μM, technical replicates 1-3, Fig. 2b source data, read-out: EN activity, percent of no inhibitor control): 61.9%
EN activity, percent of no inhibitor control ([4]; [Inhibitor] 500 μM, technical replicates 1-3, Fig. 2b source data, 500 µM): 55.3249% and 49.2356%
remaining activity at 500 µM ([4]; [Inhibitor] 500 μM, technical replicates 1-3, Fig. 2b source data, read-out: EN activity, percent of no inhibitor control): 62.1%
EN activity, percent of no inhibitor control ([4]; [Inhibitor] 750 μM, technical replicates 1-3, Fig. 2b source data, 750 µM): 29.8392% and 18.9487%
remaining activity at 750 µM ([4]; [Inhibitor] 750 μM, technical replicates 1-3, Fig. 2b source data, read-out: EN activity, percent of no inhibitor control): 18%
EN activity, percent of no inhibitor control ([4]; [Inhibitor] 1000 μM, technical replicates 1-3, Fig. 2b source data, 1000 µM): 13.0331% and 19.9958%
remaining activity at 1000 µM ([4]; [Inhibitor] 1000 μM, technical replicates 1-3, Fig. 2b source data, read-out: EN activity, percent of no inhibitor control): 20.4%
EN activity, percent of no inhibitor control ([4]; [Inhibitor] 1500 μM, technical replicates 1-3, Fig. 2b source data, 1500 µM): 5.3699% and 4.215%
remaining activity at 1500 µM ([4]; [Inhibitor] 1500 μM, technical replicates 1-3, Fig. 2b source data, read-out: EN activity, percent of no inhibitor control): 4.91%
PrestoBlue (viability), average (HeLa Tet-On cells; 50 μM): 5.992
Inhibition of DNA damage, full-length L1 experiments [6]: best inhibition
MMP3 RT-qPCR, average (EP = 1) ([7]; 50 μM, senescent cells, SEN control 5.499, 3 replicates): 3.608
IL1β RT-qPCR, average (EP = 1) ([7]; 50 μM, senescent cells, SEN control 8.256, 3 replicates): 8.197
CCL2 RT-qPCR, average (EP = 1) ([7]; 50 μM, senescent cells, SEN control 8.589, 3 replicates): 4.591
IFNα RT-qPCR, average (EP = 1) ([7]; 50 μM, senescent cells, SEN control 18.65, 3 replicates): 8.607
IL6 RT-qPCR, average (EP = 1) ([7]; 50 μM, senescent cells, SEN control 22.45, 3 replicates): 8.334
Inhibition of inflammation in senescent cells ([7]; treated 1 month): showed efficacy
Expression of IFN-I gene set and aging gene set (RNA-seq, GSEA) [8]: decreased expression

Nn1cnn2c(SCC(=O)Cc3ccc(-c4nc5cc(NC(=O)CSc6nnc7n(N)cnn67)ccc5o4)cc3)nnc12 [AD16]
Nuclei comet tail length, average (WT = 1) ([5]; 25 μM inhibitor): 0.5888
APE1 percent activity, Replicate 1 (APE1 [1]; compound at 25 μM, Replicate 1): 93.7909%
APE1 percent activity, Replicate 2 (APE1 [1]; compound at 25 μM, Replicate 2): 100.33%
APE1 percent activity, Replicate 3 (APE1 [1]; compound at 25 μM, Replicate 3): 92.4773%
APE1 percent activity, average (APE1 [1]; [10]): 95.5327%
activity at 25 µM (APE1 [1]): 95.5 ± 4.2%
L1 retrotransposition, average (L1 retrotransposition; 0.5 μM inhibitor): 6.997
L1 retrotransposition, average (L1 retrotransposition; 1 μM inhibitor): 6.79
L1 retrotransposition, average (L1 retrotransposition; 5 μM inhibitor): 6.3671
L1 retrotransposition, average (L1 retrotransposition; 10 μM inhibitor): 6.224
L1 retrotransposition, average (L1 retrotransposition; 25 μM inhibitor): 5.375
L1 retrotransposition, average (L1 retrotransposition; 50 μM inhibitor): 4.14
Luciferase (retrotransposition), average (L1 retrotransposition; [18]): 3.568
Luciferase (retrotransposition), replicates (L1 retrotransposition; [18]): 3.791 and 3.903 and 3.817 and 2.762
Binding Detected? (Y/N) [2]: Y
Binding to the oligonucleotide substrate [2]: detectable binding
EN activity, percent of no inhibitor control ([4]; [Inhibitor] 0.2 μM, technical replicates 1-3, Fig. 2b source data, 0.2 µM): 82.0267% and 71.1107% and 113.489%
EN activity, percent of no inhibitor control ([4]; [Inhibitor] 1 μM, technical replicates 1-3, Fig. 2b source data, 1 µM): 95.0279% and 119.352% and 94.1929%
EN activity, percent of no inhibitor control [4, 12]: 53.9202% and 53.7999%
remaining activity at 5 µM [4, 13]: 52.1%
EN activity, percent of no inhibitor control ([4]; [Inhibitor] 10 μM, technical replicates 1-3, Fig. 2b source data, 10 µM): 8.722% and 8.848%
remaining activity at 10 µM ([4]; [Inhibitor] 10 μM, technical replicates 1-3, Fig. 2b source data, read-out: EN activity, percent of no inhibitor control): 9.85%
EN activity, percent of no inhibitor control [4, 14]: 4.539% and 2.3611%
remaining activity at 25 µM [4, 15]: 3.82%
EN activity, percent of no inhibitor control [4, 16]: 5.5014% and 3.599%
remaining activity at 50 µM ([4]; [Inhibitor] 50 μM, technical replicates 1-3, Fig. 2b source data, read-out: EN activity, percent of no inhibitor control): 5.19%
EN activity, percent of no inhibitor control [4, 17]: 3.629% and 2.352%
remaining activity at 100 µM ([4]; [Inhibitor] 100 μM, technical replicates 1-3, Fig. 2b source data, read-out: EN activity, percent of no inhibitor control): 2.31%
PrestoBlue (viability), average (HeLa Tet-On cells; 25 μM): 13.01
Inhibition of DNA damage, EN domain-only experiments [9]: better efficacy
